Results as given in patent US10640545B2 (THE GOVERNORS OF THE UNIVERSITY OF ALBERTA, priority 2017, dated 2020).
*1 amine or outer side, *2 acyl side, *3 side chain or, on linkers, in order; H or OH if unused. Where a SMILES comes first, the peptide text is derived from it. [ ]: non-standard residue; d: D form. Phe(4-Br) = N[C@@H](Cc1ccc(Br)cc1)C(=O)O; X1 = N=C(N)NCCCN(N[*:1])C(=O)[*:2]; azaLeu = CC(C)CN(N[*:1])C(=O)[*:2]; Nle = CCCC[C@H](N)C(=O)O; Aib = CC(C)(N)C(=O)O

Columns and labels:
anesthetized mice = test: Blood pressure assay in anesthetized mice; assay type: in vivo; details: 1.4 μM/kg body weight injected, SBP, DBP, MABP
Method: Synthetic peptides 8-19 were tested for blood pressure lowering abilities in anesthetized mice. Apelin peptides were injected through […], monitoring blood pressure (BP) and heart rate (HR) over 60 minutes.
Mice were anaesthetized with 1.5% isoflurane/oxygen, and body temperature was monitored and maintained at 36° C. by a heating pad. The aorta was cannulated via the right carotid artery using a PV loop catheter (Model 1.2F from Scisense, Transonic) in order to continuously record arterial blood pressure and heart rate (LabScribe 2.0, Scisense). […] Results are reported as systolic blood pressure (SBP), diastolic blood pressure (DBP), mean arterial blood pressure (MABP) and heart rate (HR).
Apelin peptides 11, 56-59 as well as the KLKB1-cleavage fragments 54 and 55 were tested for blood pressure lowering abilities in anesthetized mice.
Mice were anesthetized with 1.5% isoflurane/oxygen, and body temperature was monitored and maintained at 36° C. by a heating pad. The aorta was cannulated via the right carotid artery using a PV loop catheter (model 1.2F from Scisense, Transonic) in order to continuously record arterial blood pressure and heart rate (LabScribe 2.0, Scisense). Compounds 11, and 54-59 or 55-59 (1.4 μM/kg body weight) or the same volume of saline was injected via the right jugular vein. Results are reported as systolic blood pressure (SBP), diastolic blood pressure (DBP), mean arterial blood pressure (MABP), and heart rate (HR) shown in FIGS. 15A-D.
Apelin peptides were delivered systemically via the right internal jugular vein while blood pressure (BP) and heart rate (HR) were continuously monitored in the aorta cannulated via the right carotid artery. All N-terminally extended apelin peptides, except 58, show pronounced and time-stable blood pressure lowering effects (FIGS. 15a-d). […] This correlates with the results obtained from the Ca^2+ mobilization assay.

[1] = biological target: T1, wild-type rat apelin receptor (Rattus norvegicus, UniProt Q9JHG3); test: Radioligand binding, displacement of [125I]-pyr-1-apelin-13 on CHO cell membranes; details: for receptor binding affinity (in words): rat apelin receptor
T1 construct: expressed in transfected cells
T1 sequence (Q9JHG3 1-377): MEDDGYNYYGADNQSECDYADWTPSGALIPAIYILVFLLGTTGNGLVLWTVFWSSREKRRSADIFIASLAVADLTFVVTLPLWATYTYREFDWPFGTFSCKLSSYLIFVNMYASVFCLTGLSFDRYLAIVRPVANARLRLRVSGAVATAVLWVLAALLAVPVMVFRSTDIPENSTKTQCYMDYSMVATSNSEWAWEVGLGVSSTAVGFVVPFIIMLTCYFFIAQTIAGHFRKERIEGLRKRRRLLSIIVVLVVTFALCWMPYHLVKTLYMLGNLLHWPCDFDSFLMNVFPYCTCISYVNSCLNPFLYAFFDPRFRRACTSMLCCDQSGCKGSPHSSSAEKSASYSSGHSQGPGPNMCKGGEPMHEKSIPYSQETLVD
Method: This experiment evaluated the ability of peptides of the present embodiments to bind to the wild-type rat apelin receptor, in order to examine the impact of synthetic modification within the critical RPRL motif of the apelin peptides.
Membrane preparations from CHO cells stably expressing the wild-type rat apelin receptor-EGFP were prepared as previously described (Gerbier et al., New Structural Insights Into The Apelin Receptor: Identification Of Key Residues For Apelin binding; FASEB J. 2015, 29, 314-322; Iturrioz et. al., Development Of Original Metabolically-Stable Apelin-17 Peptides With Diuretic And Cardiovascular Effects; FASEB J. 2017, 31, 687-700.) Crude membrane preparations (1 μg total mass of membranes/assay) were incubated for 3 h at 20° C. with 0.2 nM [^125I]-pyr-1-apelin-13 (monoiodinated on Lys^8 with Bolton-Hunter reagent, Perkin Elmer, Wellesley, Mass., USA) in binding buffer (50 mM HEPES, 5 mM MgCl2 1149 pH 7.5, BSA 1%) alone or in presence of the different compounds at various concentrations. The reaction was stopped by adding 4 mL of cold binding buffer, filtered on Whatman GF/C filters and washed with 5 mL of cold binding buffer. Radioactivity was then counted using a Wizard 1470 Wallac gamma counter (Perkin Elmer, Turku, Finland). Binding experiment data were analyzed with Graph Pad Prism.

NEP = NEP (Homo sapiens, UniProt P08473); test: Neprilysin inhibition assay (degradation of 1 after preincubation with peptide); assay type: biochemical; parameters: purchased Sino Biological; details: preincubation of NEP with equimolar peptide
Method: This experiment investigates the ability of synthetic peptides 8-19 to inhibit the inherent proteolytic activity of NEP.
Assays were performed in duplicate (n=2) for each time point.

isolated rat hearts = test: Langendorff isolated heart, ischemia-reperfusion injury; details: ex vivo heart, 30 min ischemia; for ability to rescue the heart from ischemic reperfusion injury: peptide at start of reperfusion for 10 min at 1 pM; for max/min dP/dt, LVDP and RPP compared to native isoform 2: reperfusion
Method: The ex vivo heart was assessed for a variety of parameters (heart rate (HR); left ventricle developed pressure (LVDP); maximum derivative of change in systolic pressure over time (max dP/dt); minimum derivative of change in diastolic pressure over time (min dP/dt); and rate-pressure product (RPP)) indicative of general heart function and performance (FIG. 11).
Langendorff heart perfusion and ischemia-reperfusion injury were prepared and cardiac function was measured. Mice were heparinized and anaesthetized with 1.5-2% isoflurane inhalation. The heart was excised, mounted on a Langendorff system, and perfused at a consistent pressure of 80 mmHg with modified Krebs-Henseleit solution (116 mM NaCl, 3.2 mM KCl, 2.0 mM CaCl2), 1.2 mM MgSO4, 25 mM NaHCO3, 1.2 mM KH2PO4, 11 mM glucose, 0.5 mM EDTA and 2 mM pyruvate), which was kept at 37° C. and continuously oxygenated with 95% O2 and 5% CO2 which maintained the perfusion buffer at pH 7.4. After stabilization and 10 min baseline recording, global ischemia was induced for 30 min followed by 40 min of reperfusion. Apelin 17 (2) or apelin peptides (11, 17, 18, or 19) were given at the start of reperfusion for 10 min at a concentration of 1 pM. Left ventricular functions were obtained continuously by PowerLab system (ADInstruments, Australia). Data was reported as mean value of every 5 min. Left ventricular functions were reported as: Left Ventricular Developed Pressure (LVDP); Heart rate (HR); maximum derivative of change in systolic pressure over time (max dP/dt); minimum derivative of change in diastolic pressure over time (min dP/dt); and Rate Pressure Product (RPP).

in vitro = details: human, plasma

Sequence of NEP (P08473 whole entry): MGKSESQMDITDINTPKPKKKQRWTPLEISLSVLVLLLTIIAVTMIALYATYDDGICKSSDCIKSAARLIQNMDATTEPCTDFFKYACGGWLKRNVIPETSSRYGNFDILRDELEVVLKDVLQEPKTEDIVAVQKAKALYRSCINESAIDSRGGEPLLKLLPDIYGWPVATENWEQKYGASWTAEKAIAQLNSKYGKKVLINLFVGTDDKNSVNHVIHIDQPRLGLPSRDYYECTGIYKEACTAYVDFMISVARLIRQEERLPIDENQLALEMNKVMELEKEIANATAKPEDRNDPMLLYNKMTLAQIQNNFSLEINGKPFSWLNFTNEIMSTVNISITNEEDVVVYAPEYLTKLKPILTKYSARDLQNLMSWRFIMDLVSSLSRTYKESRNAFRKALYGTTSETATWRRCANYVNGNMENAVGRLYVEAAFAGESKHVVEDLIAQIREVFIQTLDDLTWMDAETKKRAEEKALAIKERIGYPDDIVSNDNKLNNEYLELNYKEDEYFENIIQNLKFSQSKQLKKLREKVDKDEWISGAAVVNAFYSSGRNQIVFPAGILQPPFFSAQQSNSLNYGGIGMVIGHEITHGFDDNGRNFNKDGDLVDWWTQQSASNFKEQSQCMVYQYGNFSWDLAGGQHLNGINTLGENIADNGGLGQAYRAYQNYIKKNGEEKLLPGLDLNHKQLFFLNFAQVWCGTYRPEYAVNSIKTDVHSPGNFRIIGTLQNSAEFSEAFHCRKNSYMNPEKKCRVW

Row | Structure (SMILES) | blood pressure lowering (hypotensive) effect (anesthetized mice) | receptor binding affinity (in words) [1] | inhibition of the proteolytic activity of NEP (NEP) | ability to rescue the heart from ischemic reperfusion injury (isolated rat hearts) | max/min dP/dt, LVDP and RPP compared to native isoform 2 (isolated rat hearts) | remaining at 0.5 h, 80 µM (in vitro) [%] | remaining at 1 h, 80 µM (in vitro) [%] | Ki ([1]; displacement of [125I]-pyr-1-apelin-13 (0.2 nM), CHO membranes, rat apelin receptor-EGFP, means ± SE, read-out: Affinity Ki) [nM]
1 | CCCC[C@H](NC(=O)[C@@H]1CCCN1C(=O)CNC(=O)[C@H](CCCCN)NC(=O)[C@H](Cc1c[nH]cn1)NC(=O)[C@H](CO)NC(=O)N(CC(C)C)NC(=O)[C@H](CCCNC(=N)N)NC(=O)[C@@H]1CCCN1C(=O)[C@H](CCCNC(=N)N)NC(=O)[C@H](CCC(N)=O)NC(=O)[C@H](CCCNC(=N)N)NC(=O)[C@H](CCCNC(=N)N)NC(=O)[C@H](Cc1ccccc1)NC(=O)[C@@H](N)CCCCN)C(=O)NC(C)(C)C(=O)N[C@@H](Cc1ccc(Br)cc1)C(=O)O [Peptide 19] (H-KFRRQRPR[azaLeu]SHKGP[Nle][Aib][Phe(4-Br)]-OH; N-terminus and C-terminus assumed) | potent hypotensive activity that rivaled or bested that of native 2 or A2 variant 5 | sub-nanomolar receptor affinities | no ability to inhibit the inherent activity of NEP | equivalent ability to rescue the heart from ischemic reperfusion injury compared to native isoform 2 | slight improvement over the native isoform | 82 ± 1 | 68 ± 4 | 
2 | CCCC[C@H](NC(=O)[C@@H]1CCCN1C(=O)CNC(=O)[C@H](CCCCN)NC(=O)[C@H](Cc1c[nH]cn1)NC(=O)[C@H](CO)NC(=O)[C@H](CC(C)C)NC(=O)N(CCCNC(=N)N)NC(=O)[C@@H]1CCCN1C(=O)[C@H](CCCNC(=N)N)NC(=O)[C@H](CCC(N)=O)NC(=O)[C@H](CCCNC(=N)N)NC(=O)[C@H](CCCNC(=N)N)NC(=O)[C@H](Cc1ccccc1)NC(=O)[C@@H](N)CCCCN)C(=O)NC(C)(C)C(=O)N[C@@H](Cc1ccc(Br)cc1)C(=O)O [Peptide 17, Lys-Phe-Arg-Arg-Gln-Arg-Pro-azaArg-Leu-Ser-His-Lys-Gly-Pro-Nle-Aib-paraBrPhe] (H-KFRRQRP[X1]LSHKGP[Nle][Aib][Phe(4-Br)]-OH; N-terminus and C-terminus assumed) | potent hypotensive activity that rivaled or bested that of native 2 or A2 variant 5 | sub-nanomolar receptor affinities | no ability to inhibit the inherent activity of NEP | equivalent ability to rescue the heart from ischemic reperfusion injury compared to native isoform 2 | behaving very analogously to 2 | 96 ± 6 | 94 ± 3 | 0.14 ± 0.009
